Laboratory results published in PubChem BioAssay (NCI).
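Cells were grown in 96-well plates and exposed to each compound for 48 hours at five concentrations; endpoints were interpolated linearly between bracketing concentrations, or set to the highest concentration if not reached. The concentration for full growth arrest is given as TGI.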

What was measured:
Assay in all cases: NCI tumour cell line growth inhibition, 48 h
BT-549 breast = tested on: BT-549 breast
SK-MEL-28 melanoma = tested on: SK-MEL-28 melanoma
DU-145 prostate = tested on: DU-145 prostate
SF-539 CNS = tested on: SF-539 CNS
UO-31 renal = tested on: UO-31 renal
SK-MEL-5 melanoma = tested on: SK-MEL-5 melanoma
HL-60(TB) leukemia = tested on: HL-60(TB) leukemia
K-562 leukemia = tested on: K-562 leukemia
PC-3 prostate = tested on: PC-3 prostate
NCI-H23 lung = tested on: NCI-H23 lung
KM12 colon = tested on: KM12 colon
CCRF-CEM leukemia = tested on: CCRF-CEM leukemia
SK-MEL-2 melanoma = tested on: SK-MEL-2 melanoma
CAKI-1 renal = tested on: CAKI-1 renal
HT29 colon = tested on: HT29 colon
UACC-62 melanoma = tested on: UACC-62 melanoma
SR leukemia = tested on: SR leukemia
OVCAR-3 ovarian = tested on: OVCAR-3 ovarian
786-0 renal = tested on: 786-0 renal
U251 CNS = tested on: U251 CNS
T-47D breast = tested on: T-47D breast
UACC-257 melanoma = tested on: UACC-257 melanoma
OVCAR-4 ovarian = tested on: OVCAR-4 ovarian
HCT-15 colon = tested on: HCT-15 colon
MOLT-4 leukemia = tested on: MOLT-4 leukemia
IGROV1 ovarian = tested on: IGROV1 ovarian
NCI/ADR-RES ovarian = tested on: NCI/ADR-RES ovarian
HCC-2998 colon = tested on: HCC-2998 colon
MALME-3M melanoma = tested on: MALME-3M melanoma
HS 578T breast = tested on: HS 578T breast
SN12C renal = tested on: SN12C renal
LOX IMVI melanoma = tested on: LOX IMVI melanoma
SF-295 CNS = tested on: SF-295 CNS
RPMI-8226 leukemia = tested on: RPMI-8226 leukemia
COLO 205 colon = tested on: COLO 205 colon
OVCAR-8 ovarian = tested on: OVCAR-8 ovarian
RXF 393 renal = tested on: RXF 393 renal
NCI-H460 lung = tested on: NCI-H460 lung
SF-268 CNS = tested on: SF-268 CNS
MDA-MB-435 = tested on: MDA-MB-435
MDA-N = tested on: MDA-N
A498 renal = tested on: A498 renal
OVCAR-5 ovarian = tested on: OVCAR-5 ovarian
SW-620 colon = tested on: SW-620 colon
MDA-MB-231 breast = tested on: MDA-MB-231 breast
HOP-92 NSCLC = tested on: HOP-92 NSCLC
SNB-19 CNS = tested on: SNB-19 CNS
TK-10 renal = tested on: TK-10 renal
A549 NSCLC = tested on: A549 NSCLC
HCT-116 colon = tested on: HCT-116 colon
EKVX NSCLC = tested on: EKVX NSCLC
SK-OV-3 ovarian = tested on: SK-OV-3 ovarian
NCI-H522 lung = tested on: NCI-H522 lung
MCF7 breast = tested on: MCF7 breast
NCI-H226 lung = tested on: NCI-H226 lung
ACHN renal = tested on: ACHN renal
HOP-62 NSCLC = tested on: HOP-62 NSCLC
M14 melanoma = tested on: M14 melanoma
SNB-75 CNS = tested on: SNB-75 CNS

Measured: TGI

O=C(O)[C@H]1NC[C@@H]2ON=C(Br)[C@@H]21
> 100 µM: all assays above
